Results reported in patent US20250304594A1, “METHYL (R)-2-(FLUOROMETHYL)-5-OXO-4-PHENYL-4,5,6,7-TETRAHYDRO-1H-CYCLOPENTA[B]PYRIDINE-3-CARBOXYLATE AND METHYL (R)-2-(FLUOROMETHYL)-5-OXO-4-PHENYL-1,4,5,7-TETRAHYDROFURO[3,4-B]PYRIDINE-3-CARBOXYLATE AS Cav1,2 ACTIVATORS” (Novartis AG, priority 2020, published 2025).

How the values were obtained:
[1] = target: T1, human CaV1.2 (Homo sapiens, UniProt Q13936); experiment: Sophion QPatch dose-response assay, whole-cell voltage clamp of barium currents in CaV1.2-HEK293(AUX) cells; assay type: cell-based; details: for Qpatch Emax: maximal fold change of peak inward current
T1 construct: expressed in transfected cells; host or cells: Flp-In 293 T-Rex (HEK293), monoclonal CaV1.2-HEK293(AUX) clone 2-19B; doxycycline-induced auxiliary subunits
T1 sequence (Q13936 1-2138 isoform Q13936-23): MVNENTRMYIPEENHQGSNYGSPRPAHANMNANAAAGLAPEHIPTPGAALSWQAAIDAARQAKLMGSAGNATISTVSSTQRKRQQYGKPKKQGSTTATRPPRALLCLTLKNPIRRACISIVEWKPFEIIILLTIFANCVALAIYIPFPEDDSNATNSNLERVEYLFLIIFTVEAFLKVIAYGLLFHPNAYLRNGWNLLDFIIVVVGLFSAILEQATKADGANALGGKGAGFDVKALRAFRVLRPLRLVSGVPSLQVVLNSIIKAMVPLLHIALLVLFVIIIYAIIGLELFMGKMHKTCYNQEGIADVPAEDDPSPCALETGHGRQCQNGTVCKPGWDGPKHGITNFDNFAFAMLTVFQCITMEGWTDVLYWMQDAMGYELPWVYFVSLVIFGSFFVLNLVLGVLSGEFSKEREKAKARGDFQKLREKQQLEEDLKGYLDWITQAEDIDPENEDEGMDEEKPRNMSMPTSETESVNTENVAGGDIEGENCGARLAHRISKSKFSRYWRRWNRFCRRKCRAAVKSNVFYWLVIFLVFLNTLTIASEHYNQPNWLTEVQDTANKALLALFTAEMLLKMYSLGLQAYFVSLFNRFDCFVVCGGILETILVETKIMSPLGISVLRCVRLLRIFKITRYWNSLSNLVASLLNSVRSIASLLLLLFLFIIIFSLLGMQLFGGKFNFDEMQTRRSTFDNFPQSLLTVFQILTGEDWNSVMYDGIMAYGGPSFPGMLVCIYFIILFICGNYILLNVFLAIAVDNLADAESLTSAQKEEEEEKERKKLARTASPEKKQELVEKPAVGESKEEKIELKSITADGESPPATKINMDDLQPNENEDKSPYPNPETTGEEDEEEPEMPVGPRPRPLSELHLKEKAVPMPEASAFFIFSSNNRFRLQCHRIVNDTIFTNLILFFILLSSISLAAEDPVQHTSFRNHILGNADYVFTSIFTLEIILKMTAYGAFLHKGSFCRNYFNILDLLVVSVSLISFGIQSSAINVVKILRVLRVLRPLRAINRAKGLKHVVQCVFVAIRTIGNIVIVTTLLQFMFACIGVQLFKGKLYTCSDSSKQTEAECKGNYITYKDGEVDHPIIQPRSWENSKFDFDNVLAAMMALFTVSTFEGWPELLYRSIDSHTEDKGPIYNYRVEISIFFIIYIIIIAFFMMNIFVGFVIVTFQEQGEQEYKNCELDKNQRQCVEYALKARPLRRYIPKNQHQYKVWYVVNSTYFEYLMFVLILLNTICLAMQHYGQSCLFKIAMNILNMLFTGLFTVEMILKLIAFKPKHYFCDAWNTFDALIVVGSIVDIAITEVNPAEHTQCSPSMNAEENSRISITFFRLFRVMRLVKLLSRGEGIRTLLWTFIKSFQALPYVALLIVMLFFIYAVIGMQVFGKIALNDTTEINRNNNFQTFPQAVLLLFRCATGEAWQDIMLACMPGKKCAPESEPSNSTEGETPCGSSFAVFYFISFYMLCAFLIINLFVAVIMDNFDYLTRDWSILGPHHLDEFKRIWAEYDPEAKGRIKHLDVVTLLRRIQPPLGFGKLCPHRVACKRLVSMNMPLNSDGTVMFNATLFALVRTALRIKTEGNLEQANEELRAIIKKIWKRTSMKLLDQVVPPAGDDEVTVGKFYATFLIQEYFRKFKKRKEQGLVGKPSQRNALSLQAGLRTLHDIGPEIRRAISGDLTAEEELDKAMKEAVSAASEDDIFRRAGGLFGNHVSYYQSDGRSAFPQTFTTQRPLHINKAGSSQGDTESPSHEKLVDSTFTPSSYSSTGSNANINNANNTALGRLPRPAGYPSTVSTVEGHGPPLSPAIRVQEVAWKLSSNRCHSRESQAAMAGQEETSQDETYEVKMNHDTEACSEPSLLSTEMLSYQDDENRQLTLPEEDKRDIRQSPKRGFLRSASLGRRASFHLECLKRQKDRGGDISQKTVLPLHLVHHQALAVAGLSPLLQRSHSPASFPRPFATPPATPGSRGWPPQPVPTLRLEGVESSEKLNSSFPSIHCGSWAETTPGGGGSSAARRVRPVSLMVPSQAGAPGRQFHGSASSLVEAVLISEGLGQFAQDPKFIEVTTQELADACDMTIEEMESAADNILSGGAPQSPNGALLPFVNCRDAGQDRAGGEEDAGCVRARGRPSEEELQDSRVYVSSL
T1 sequence (Q9NY47 19-1001 partner limits assumed): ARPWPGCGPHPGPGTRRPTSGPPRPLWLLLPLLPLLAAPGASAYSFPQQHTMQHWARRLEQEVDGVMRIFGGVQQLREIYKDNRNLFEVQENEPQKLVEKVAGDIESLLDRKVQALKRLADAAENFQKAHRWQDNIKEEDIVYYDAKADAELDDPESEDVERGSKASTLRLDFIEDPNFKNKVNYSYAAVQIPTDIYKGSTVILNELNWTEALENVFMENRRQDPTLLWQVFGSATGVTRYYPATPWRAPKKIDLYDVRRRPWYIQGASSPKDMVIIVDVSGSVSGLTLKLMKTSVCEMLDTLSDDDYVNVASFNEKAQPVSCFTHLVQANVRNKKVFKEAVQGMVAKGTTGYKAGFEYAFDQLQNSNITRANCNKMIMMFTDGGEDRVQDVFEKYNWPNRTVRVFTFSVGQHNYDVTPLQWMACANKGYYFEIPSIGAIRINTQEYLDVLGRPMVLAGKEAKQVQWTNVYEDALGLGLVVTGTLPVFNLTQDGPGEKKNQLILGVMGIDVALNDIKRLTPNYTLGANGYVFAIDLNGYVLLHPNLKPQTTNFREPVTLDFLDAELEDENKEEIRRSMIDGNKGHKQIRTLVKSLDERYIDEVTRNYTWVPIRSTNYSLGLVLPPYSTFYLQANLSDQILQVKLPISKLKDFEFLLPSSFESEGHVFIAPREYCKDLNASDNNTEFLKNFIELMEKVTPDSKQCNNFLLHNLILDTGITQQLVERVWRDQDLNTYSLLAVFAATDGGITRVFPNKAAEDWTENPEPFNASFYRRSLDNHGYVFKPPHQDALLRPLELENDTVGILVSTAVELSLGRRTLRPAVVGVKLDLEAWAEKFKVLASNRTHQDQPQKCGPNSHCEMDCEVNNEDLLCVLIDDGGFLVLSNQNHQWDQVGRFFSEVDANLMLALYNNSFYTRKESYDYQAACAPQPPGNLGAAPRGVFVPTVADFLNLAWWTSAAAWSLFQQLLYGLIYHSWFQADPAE
T1 sequence (Q9NY47 1002-1150 partner limits assumed): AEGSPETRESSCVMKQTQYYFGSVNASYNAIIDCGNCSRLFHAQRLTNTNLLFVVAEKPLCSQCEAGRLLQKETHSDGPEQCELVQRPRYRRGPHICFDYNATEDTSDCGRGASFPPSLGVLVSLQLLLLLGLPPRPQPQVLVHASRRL
T1 sequence (Q08289 whole entry partner): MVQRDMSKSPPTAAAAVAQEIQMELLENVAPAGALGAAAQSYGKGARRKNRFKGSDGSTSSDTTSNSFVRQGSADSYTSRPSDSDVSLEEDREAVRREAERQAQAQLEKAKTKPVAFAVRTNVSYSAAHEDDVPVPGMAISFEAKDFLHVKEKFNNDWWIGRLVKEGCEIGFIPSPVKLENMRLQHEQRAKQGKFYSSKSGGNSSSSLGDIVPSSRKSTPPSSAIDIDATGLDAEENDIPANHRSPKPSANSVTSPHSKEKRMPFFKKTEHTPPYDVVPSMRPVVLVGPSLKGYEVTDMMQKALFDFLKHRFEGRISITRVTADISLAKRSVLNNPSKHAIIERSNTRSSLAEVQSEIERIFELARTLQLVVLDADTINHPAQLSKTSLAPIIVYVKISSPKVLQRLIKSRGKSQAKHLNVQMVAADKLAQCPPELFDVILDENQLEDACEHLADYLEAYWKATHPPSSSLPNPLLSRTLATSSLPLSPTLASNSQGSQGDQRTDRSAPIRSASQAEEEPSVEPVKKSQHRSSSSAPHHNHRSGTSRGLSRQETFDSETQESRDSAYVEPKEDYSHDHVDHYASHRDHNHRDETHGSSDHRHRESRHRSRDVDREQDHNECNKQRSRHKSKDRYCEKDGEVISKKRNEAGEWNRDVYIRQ
Excerpt: (§1) The monoclonal CaV1.2-HEK293(AUX) cell line constitutively expresses human CaV1.2 alpha1C (α1C) subunit (CACNA1C) and has doxycycline-inducible expression of the alpha2delta (α2Δ2) auxiliary subunit (CACNA2D2) and beta2 (02) auxiliary subunit (CACNB2). To generate the cell line, expression vectors pcDNA5.0/FRT-TO-CACNA2D2-FCS-P2A-CACNB2 and pCMV6-entry-CACNA1C were established via gene synthesis and cloning. Here, pcDNA5.0/FRT-TO plasmid is from Invitrogen, pCMV6-entry is from Origene, FCS stands for Furin Cleavage Site, P2A is a peptide self-cleavage sequence derived from porcine teschovirus-1, and FRT is the Flippase recognition target site. Next, parental line Flp-In™ 293 T-Rex (Invitrogen) was transfected with pcDNA5.0/FRT-TO-CACNA2D2-FCS-P2A-CACNB2 and Flippase vector pOG44 (Invitrogen) to establish targeted integration of the CACNA2D2-FCS-P2A-CACNB2 expression cassette into the pre-engineered FRT site in Flp-In™ 293 T-Rex. This intermediate cell line was then transfected with pCMV6-entry-CACNA1C to establish stable CACNA1C expression. Clonal isolation was achieved under Neomycin selection.
Electrophysiological Characterization of CaV1.2 Activators Using CaV1.2-HEK293(AUX) Cell Line and QPatch
(§2) 24 hours prior an electrophysiology experiment, doxycycline (1 μg/ml) was added to the growth medium (Table 6), and 25 μM of verapamil was co-applied to prevent calcium influx triggered cell death. Cell confluency should reach 70%-80% right before the experiment. To harvest cells (from a T175 cm^2 flask as an example), growth media were removed completely, and the cells were rinsed with 10 mL of D-PBS. D-PBS was aspirated, and 10 mL of Detachin (Genlantis) was added and the plate was placed in a 37° C. incubator for 10 minutes. Detached cells were placed into a 15 mL conical tube and spun at 1000 rpm for 2 minutes. Supernatant was removed, and cells were re-suspended in QPatch complete media (Table 7) to desired cell density of 1.5-3 million cells per QPatch run. Each experimental run uses 1.5 mL of cells.
(§3) The cells suspension was taken to the Sophion QPatch platform that uses whole-cell voltage clamp to measure barium currents conducted through CaV1.2 on single-hole QPlates. Extracellular and intracellular patch clamp solutions are described in Tables 7 and 8, respectively. A dose-response assay protocol was used to determine the maximal fold change of peak inward current (Emax) and potency (EC50) of each compound. The protocol had eight liquid periods. The first liquid period was to stabilize current amplitude, which was monitored using repetitive 200-ms voltage pulses stepping from −80 mV to 0 mV. The second liquid period was to determine baseline current amplitude in the presence of vehicle control, using a single 20-ms voltage pulse stepping from −80 mV to 0 mV. The third through eighth liquid periods were used to ascertain a 6-dose response to compound treatments, also using single 20-ms voltage pulses stepping from −80 mV to 0 mV. The EC50 was generated using the following equation Iconcentration=Ibase+(Ifull−Ibase)*c^n/(XC50^n+c^n), where c is the concentration and n is the Hill coefficient constant. Ifull is the maximal current achievable, and Ibase is 0. A channel biophysics assay protocol was used to determine channel gating properties including current-voltage relationship (IV curves), half-way channel activation voltage (V1/2), rate of channel inactivation (tau), and amplitude of tail current. Among these, V1/2 was derived from fitting equation G(V)=Gvmin+(Gvmax−Gvmin)/(1+exp(−(V−V½)/Vslope)), where G stands for conductance, Gvmin equals 0, Gvmax is the maximal conductance, and Vslope is a slope factor. G(V) was pre-calculated from equation G(V)=I(V)/(V−0.06), for each experimentally applied depolarization potential (V) and the corresponding current amplitude (I(V)), and 0.06 in the equation was the experimentally determined reversal potential in volts. The protocol had four liquid periods.

[2] = target: T1, human CaV1.2; experiment: QPatch channel biophysics assay (channel gating, V1/2 of activation, inactivation) in CaV1.2-HEK293(AUX) cells; assay type: cell-based
Excerpt: as §1, with “selection. A cell clone (2-19B) with good voltage-dependent Barium current (see electrophysiology methods below) was selected for characterization of CaV1.2 activators.” for “selection.”
as §2
as §3, with “The protocol had four liquid periods.” left out

[3] = Table 9, 6-point dose response, 10 determinations per concentration, n = 1 unless * n = 2
[4] = Table 9, shift of half-way channel activation voltage V1/2
[5] = Table 10 comparative examples, single enantiomers of reported racemates

| Structure (SMILES) | EC50 [1, 3] | Qpatch Emax ([1]; Table 9, n = 1 unless * n = 2) | Biophysics voltage shift (mV) [2, 4] | EC50 [1, 5] | Qpatch Emax ([1]; Table 10 comparative examples) | Biophysics voltage shift (mV) ([2]; Table 10 comparative examples) |
| --- | --- | --- | --- | --- | --- | --- |
| COC(=O)C1=C(CF)NC2=C(C(=O)CC2)[C@H]1c1cc(F)cc(F)c1[C@H](C)F (single isomer, unassigned) [Example 29, methyl (R)-4-(3,5-difluoro-2-((S or R)-1-fluoroethyl)phenyl)-2-(fluoromethyl)-5-oxo-4,5,6,7-tetrahydro-1H-cyclopenta[b]pyridine-3-carboxylate] | 50 nM | 1.4 | – | – | – | – |
| COC(=O)C1=C(CF)NC2=C(C(=O)CC2)[C@H]1c1cc(F)cc(F)c1C1CC1 (single isomer, unassigned) [Example 14] | 90 nM | 1.9 | −5.5 mV | – | – | – |
| COC(=O)C1=C(CF)NC2=C(C(=O)CC2)[C@H]1c1cccc(F)c1CC(F)(F)F (single isomer, unassigned) [Example 25] | 40 nM | 1.7 | −4.2 mV | – | – | – |
| COC(=O)C1=C(CF)NC2=C(C(=O)OC2)[C@H]1c1cccc(F)c1OC(F)F (single isomer, unassigned) [Example 19] | 60 nM | 1.8 | −6.7 mV | – | – | – |
| CCc1ccccc1[C@H]1C(C(=O)OC)=C(CF)NC2=C1C(=O)OC2 (single isomer, unassigned) [Example 30] | 90 nM | 1.8 | – | – | – | – |
| COC(=O)C1=C(CF)NC2=C(C(=O)OC2)[C@H]1c1cc(F)cc(F)c1CC(F)F (single isomer, unassigned) [Example 12] | 80 nM | 2.3 | −3.4 mV | – | – | – |
| COC(=O)C1=C(CF)NC2=C(C(=O)CC2)[C@H]1c1cccc(F)c1[C@@H](C)F (single isomer, unassigned) [Example 27, methyl (R)-4-(3-fluoro-2-((R or S)-1-fluoroethyl)phenyl)-2-(fluoromethyl)-5-oxo-4,5,6,7-tetrahydro-1H-cyclopenta[b]pyridine-3-carboxylate] | 30 nM | 1.5 | −8.7 mV | – | – | – |
| COC(=O)C1=C(C(F)F)NC2=C(C(=O)OC2)[C@H]1c1cccc(F)c1[C@@H](C)F (single isomer, unassigned) [Example 31, methyl (R)-2-(difluoromethyl)-4-(3-fluoro-2-((R or S)-1-fluoroethyl)phenyl)-5-oxo-1,4,5,7-tetrahydrofuro[3,4-b]pyridine-3-carboxylate] | 290 nM | 1.6 | – | – | – | – |
| COC(=O)C1=C(C)NC2=C(C(=O)OC2)[C@H]1c1ccccc1C (single isomer, unassigned) [CAS# 85825-32-7, reference compound] | – | – | – | 2240 nM | – | – |
| COC(=O)C1=C(CF)NC2=C(C(=O)OC2)[C@H]1c1cc(F)ccc1OC(F)F (single isomer, unassigned) [Example 20] | 220 nM | 3.0 | −8.5 mV | – | – | – |
| COC(=O)C1=C(C)NC(C)=C([N+](=O)[O-])[C@H]1c1ccccc1C(F)(F)F (single isomer, unassigned) [reference compound] | – | – | – | – | 3.9 | – |
| COC(=O)C1=C(CF)NC2=C(C(=O)OC2)[C@H]1c1ccccc1C1CC1 (single isomer, unassigned) [Example 22] | 50 nM | 2.8 | −8.6 mV | – | – | – |
| COC(=O)C1=C(CF)NC2=C(C(=O)CC2)[C@H]1c1cccc(F)c1CC(F)F (single isomer, unassigned) [Example 26] | 300 nM | 2.0 | −4.3 mV | – | – | – |
| CCOC(=O)C1=C(C)NC2=C(C(=O)OC2)[C@H]1c1ccccc1OCc1ccccc1 (single isomer, unassigned) [RS30124, reference compound] | – | – | – | 45 nM | 4.3 | −15.4 mV |
| COC(=O)C1=C(CF)NC2=C(C(=O)OC2)[C@H]1c1cc(F)ccc1C1CC1 (single isomer, unassigned) [Example 21] | 30 nM | 2.8 | −8.1 mV | – | – | – |
| COC(=O)C1=C(CF)NC2=C(C(=O)OC2)[C@H]1c1ccccc1C(F)(F)F (single isomer, unassigned) [Example 24] | 160 nM | – | – | – | – | – |
